ChEMBL document CHEMBL1125697, “Synthesis and pharmacological examination of 1-(3-methoxy-4-methylphenyl)-2-aminopropane and 5-methoxy-6-methyl-2-aminoindan: similarities to 3,4-(methylenedioxy)methamphetamine (MDMA)” (J Med Chem, 1991)
Several values for one entry are separate records, joined by “and”; a condition that tells them apart may be missing. Equal entries are not always repeated.

Legend:
Type in all cases: functional
Rattus norvegicus [1] = species: Rattus norvegicus; test: Effective dose was evaluated for drug discrimination in I-trained rats
Rattus norvegicus [2] = test: Effective dose was evaluated for drug discrimination in I-trained rats, when given at a dose of 0.25 mg/kg; conditions: Rattus norvegicus; read-out: ED50
Rattus norvegicus [3] = test: Effective dose was evaluated for drug discrimination in I-trained rats, when given at a dose of 1.16 micro mol/kg
Rattus norvegicus [4] = species: Rattus norvegicus; test: Compound was evaluated for the uptake inhibition of [3H]-5-HT in rats
Rattus norvegicus [5] = test: Percentage of non disrupted rats that selected the drug lever, when given at a dose of 0.25 mg/kg
Rattus norvegicus [6] = test: Percentage of non disrupted rats that selected the drug lever, when given at a dose of 0.5 mg/kg
Rattus norvegicus [7] = test: Percentage of non disrupted rats that selected the drug lever, when given at a dose of 0.75 mg/kg

CCN(CC)C(=O)[C@@H]1C=C2c3cccc4[nH]cc(c34)C[C@H]2N(C)C1 [LYSERGIDE]
ED50 (Rattus norvegicus [1]): 0.025 mg/kg and 0.058 µmol/kg

COc1cc(C[C@H](C)N)ccc1C
ED50 (Rattus norvegicus [2]): 0.46 mg/kg | ED50 (Rattus norvegicus [3]): 2.14 µmol/kg | IC50 (Rattus norvegicus [4]): 99 nM | SDL (Rattus norvegicus [5]): 17% | SDL (Rattus norvegicus [6]): 33% | SDL (Rattus norvegicus [7]): 100%

CC[C@@H](Cc1ccc2c(c1)OCO2)NC
ED50 (Rattus norvegicus [1]): 0.79 mg/kg and 3.25 µmol/kg

C[C@H](N)Cc1ccccc1 [DEXTROAMPHETAMINE]
ED50 (Rattus norvegicus [1]): 0.31 mg/kg and 1.69 µmol/kg
